In brackets after ≈: the same amount, converted by molar mass.
Details: buffer; pH 7.4; 200.0 µM

| Structure (SMILES) | solubility kinetic [µg/mL] |
| --- | --- |
| C=CCNC(=S)N(Cc1ccccc1)Cc1ccc(F)cc1 | 14 (≈ 44.5 µM) |
| CC(C)C(O)(C#CCN1CCCCCC1)c1ccccc1.Cl (centres undefined) | > 48.3 |
| Cc1ccc(Oc2ccc(OCC(=O)NC3CCS(=O)(=O)C3)cc2)cc1 (centres undefined) | 7.6 (≈ 20.2 µM) |
| CS(=O)(=O)N(CC(=O)NCCSC1CCCCC1)c1ccccc1 | 40.5 (≈ 109 µM) |
| NS(=O)(=O)c1ccc(CNC(=O)c2ccc3ccccc3n2)cc1 | 3.9 (≈ 11.4 µM) |
| O=C(c1c(F)cccc1F)N1CCCc2ccccc21 | > 41 |
| COc1ccc(CCNC(=O)COC(=O)c2cc3ccccc3oc2=O)cc1OC | > 61.7 |
| Cc1ccccc1C(=O)NCCN1CCOCC1.Cl | > 42.7 |
| O=C(Cn1cccc1C(=O)c1ccccc1)NCc1cccc(Cl)c1 | < 0.4 |
| CC(O)C(NC=C1C(=O)OC(C)(C)OC1=O)C(=O)O (centres undefined) | 39.4 (≈ 144 µM) |
| O=C(CC1SCCNC1=O)Nc1ccc(Cl)cc1 (centres undefined) | > 42.7 |
| COc1cccc(NC(=O)C2C3C=CC(C3)C2C(=O)O)c1 (centres undefined) | 27.1 (≈ 94.3 µM) |
| CC1CC(C)CN(S(=O)(=O)c2ccc3oc(=O)ccc3c2)C1 (centres undefined) | 14 (≈ 43.6 µM) |
| CCCNC(=O)C12CCC(C)(c3nc4cc(C)c(C)cc4nc31)C2(C)C (centres undefined) | 32.2 (≈ 91.6 µM) |
| Cc1ccc(C(=O)N/C(=C\c2ccco2)C(=O)N2CC(C)OC(C)C2)cc1C (centres undefined) | > 57.4 |
| COCCNc1oc(-c2ccccc2Cl)nc1S(=O)(=O)c1ccc(C)cc1 | 44.1 (≈ 108 µM) |
| COc1ccc(NC(=O)c2ccc3c(c2)NC(=O)CS3)cc1 | 10.8 (≈ 34.4 µM) |
| O=C(NCc1ccco1)c1cc([N+](=O)[O-])ccc1N1CCOCC1 | 46.4 (≈ 140 µM) |
| CSCCC(NC(=O)/C(=C/c1ccco1)NC(=O)c1ccco1)C(=O)O (centres undefined) | > 56.8 |
| CC(C)C(C)NC(=O)COc1ncnc2sccc12 (centres undefined) | > 41.9 |

| Structure (SMILES) | solubility kinetic [µg/mL] |
| --- | --- |
| Cc1ccc(OCCNC(=O)CNC(=O)c2ccccc2Cl)cc1 | > 52 |
| O=C1CN(C(=O)COC(=O)CCS(=O)(=O)c2ccccc2Cl)c2ccccc2N1 | > 65.5 |
| CC(C)C(=O)NC(=S)Nc1c(Cl)ccc2nsnc12 | 40.1 (≈ 127 µM) |
| O=C(Nc1nnc(-c2ccncc2)o1)c1ccccc1 | > 39.9 |
| Cc1c(C(=O)N(C)Cc2ccccc2)oc2c(Cl)cccc12 | 8.4 (≈ 26.8 µM) |
| COc1ccc(OC)c2nc(-c3ccncc3)ccc12 | > 39.9 |
| Cc1ncc(CN2CCN(CCc3ccccc3)C(CCO)C2)s1 (centres undefined) | 39.7 (≈ 115 µM) |
| CC1N(C(=O)N(C)C)CCN1S(=O)(=O)c1ccccc1 (centres undefined) | > 44.6 |
| CSc1ccccc1C(=O)OCC(=O)NCCN1C(=O)CSC1=O | > 55.3 |
| Cc1ccccc1NC(=O)c1ccccc1-c1ccccc1 | 36.5 (≈ 127 µM) |
| O=C(CN1CCCC1)Nc1c(C(=O)C2CC2)oc2ccccc12 | 31.8 (≈ 102 µM) |
| Cc1cc(=O)oc2cc(NC(=O)c3cccc(F)c3)ccc12 | < 0.6 |
| NC(=O)COC(=O)c1cc(-c2ccco2)nc2ccccc12 | 39.9 (≈ 135 µM) |
| C=CCOc1ccc(/C=C2\SC(=S)N(CCC(=O)O)C2=O)cc1 | 48 (≈ 137 µM) |
| Cc1cc(CSc2ccccc2C(=O)O)on1 | > 37.4 |
| O=C(Nc1ccc(NS(=O)(=O)c2ccccc2)cc1)c1ccccc1Cl | 6.1 (≈ 15.8 µM) |
| CCCCN(C(=O)CSc1nc2ccccc2s1)c1c(N)n(CCCC)c(=O)[nH]c1=O | 35.6 (≈ 77.1 µM) |
| CCCn1c(COc2ccccc2OC)nc2ccccc21 | 39.5 (≈ 133 µM) |
| Cc1cccc(CCNCc2cc3ccc(C)cc3[nH]c2=O)c1 | 45.4 (≈ 148 µM) |
| CC1CN(S(=O)(=O)c2cc(C(=O)N3CCCCC3C)ccc2Cl)CC(C)O1 (centres undefined) | > 62.2 |

| Structure (SMILES) | solubility kinetic [µg/mL] |
| --- | --- |
| O=C(COC(=O)C1CCCCC1)Nc1cccc(F)c1 | > 41.9 |
| COc1ccccc1C(=O)NCCC(=O)NCc1cccs1 | > 47.8 |
| CC1(C)C(=O)N(c2ccccc2F)C(=O)c2ccccc21 | 37.2 (≈ 131 µM) |
| C=CCOC(=O)c1sc(NC(=O)c2ccc(OC)cc2)nc1C | < 0.4 |
| Cc1ccc(S(=O)(=O)CCC(=O)N2CCN(c3ccccc3O)CC2)cc1 | 35.9 (≈ 92.4 µM) |
| Cc1cc2cc(CCNC(=O)CCCc3ccccc3)c(=O)[nH]c2cc1C | 1.7 (≈ 4.69 µM) |
| Cc1ccc(N2C(=O)C(Cl)=C(N3CCCCCC3)C2=O)cc1 | 10.6 (≈ 33.2 µM) |
| COc1ccccc1OCC(=O)Nc1nc2c(s1)CCCC2 | 8 (≈ 25.1 µM) |
| COc1ccc(Cl)cc1NC(=S)N1CCN(S(C)(=O)=O)CC1 | > 54.6 |
| O=C(Nc1ccsc1C(=O)O)c1cccc(C(F)(F)F)c1 | > 47.3 |
| Cc1nc2ccccn2c1C(=O)CSc1ccccc1 | > 42.4 |
| Cc1ccc(NS(=O)(=O)c2cccc(C(=O)NC3CC3)c2)c(C)c1 | 5.8 (≈ 16.8 µM) |
| COc1ccccc1-c1c(C#N)c(N)nc2c1CCC2 | 5 (≈ 18.8 µM) |
| CCOC(=O)C1=C(CC)Nc2ccccc2N=C1N | 14.3 (≈ 55.1 µM) |
| CCOC(=O)c1c(C=O)c2sc(C)cc2n1C | 1.5 (≈ 5.97 µM) |
| S=c1nc[nH]c2nc[nH]c12 | 22.5 (≈ 148 µM) |
| CCc1ccc(N2CC(C(=O)NC3CC3)CC2=O)cc1 (centres undefined) | > 40.9 |
| O=C(NCCCl)C1Cc2c(ccc3ccccc23)O1 (centres undefined) | 40.2 (≈ 146 µM) |
| Cc1ccc(C(=O)Nc2ccc(S(=O)(=O)N3CCOCC3)cc2)cc1Br | 0.5 (≈ 1.14 µM) |

— PubChem BioAssay AID1996
